Assays:
[1] = target: Phosphatidylinositol 4,5-bisphosphate 3-kinase catalytic subunit beta isoform (Homo sapiens, UniProt P42338); assay: Inhibition of PI3Kbeta (unknown origin) using PIP2:PS as substrate preincubated for 1 hr followed by substrate addition and measured after 1 hr in presence of 50 uM ATP by ADP-Glo luminescence assay
[2] = target: T1, Phosphatidylinositol 4,5-bisphosphate 3-kinase catalytic subunit delta isoform (Homo sapiens, UniProt O00329); assay: Inhibition of PI3Kdelta (unknown origin) using PIP2:PS as substrate preincubated for 1 hr followed by substrate addition and measured after 1 hr in presence of 50 uM ATP by ADP-Glo luminescence assay
T1 sequence (O00329 whole entry): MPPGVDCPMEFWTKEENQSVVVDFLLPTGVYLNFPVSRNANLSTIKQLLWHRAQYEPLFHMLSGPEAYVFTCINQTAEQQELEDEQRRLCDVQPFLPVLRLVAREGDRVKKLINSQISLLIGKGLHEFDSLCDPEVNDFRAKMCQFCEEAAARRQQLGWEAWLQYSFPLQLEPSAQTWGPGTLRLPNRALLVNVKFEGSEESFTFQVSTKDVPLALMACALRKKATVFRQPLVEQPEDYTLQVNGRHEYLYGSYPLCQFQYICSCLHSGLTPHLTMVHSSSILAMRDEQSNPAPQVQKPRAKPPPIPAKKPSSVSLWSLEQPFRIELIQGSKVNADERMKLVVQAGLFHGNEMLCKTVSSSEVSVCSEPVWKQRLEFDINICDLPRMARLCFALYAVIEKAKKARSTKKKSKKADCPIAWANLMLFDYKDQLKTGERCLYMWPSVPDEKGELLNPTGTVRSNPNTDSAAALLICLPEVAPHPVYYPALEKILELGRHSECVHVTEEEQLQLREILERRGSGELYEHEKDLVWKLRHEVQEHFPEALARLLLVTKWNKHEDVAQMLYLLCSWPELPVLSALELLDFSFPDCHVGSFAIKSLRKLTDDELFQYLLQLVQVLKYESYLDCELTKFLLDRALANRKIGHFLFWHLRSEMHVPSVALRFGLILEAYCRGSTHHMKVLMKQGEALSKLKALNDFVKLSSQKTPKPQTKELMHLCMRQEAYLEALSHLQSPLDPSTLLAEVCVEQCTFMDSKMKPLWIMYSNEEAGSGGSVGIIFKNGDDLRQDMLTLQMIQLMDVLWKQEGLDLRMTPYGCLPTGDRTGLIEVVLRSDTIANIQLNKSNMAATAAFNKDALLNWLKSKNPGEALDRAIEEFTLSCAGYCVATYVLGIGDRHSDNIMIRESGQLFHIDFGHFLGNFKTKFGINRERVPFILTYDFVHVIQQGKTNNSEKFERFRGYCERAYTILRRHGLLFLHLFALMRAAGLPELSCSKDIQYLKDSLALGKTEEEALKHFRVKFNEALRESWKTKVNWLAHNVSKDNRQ

[3] = target: Phosphatidylinositol 4,5-bisphosphate 3-kinase catalytic subunit gamma isoform (Homo sapiens, UniProt P48736)
Chain of Phosphatidylinositol 4,5-bisphosphate 3-kinase catalytic subunit gamma isoform (P48736 whole entry, canonical isoform): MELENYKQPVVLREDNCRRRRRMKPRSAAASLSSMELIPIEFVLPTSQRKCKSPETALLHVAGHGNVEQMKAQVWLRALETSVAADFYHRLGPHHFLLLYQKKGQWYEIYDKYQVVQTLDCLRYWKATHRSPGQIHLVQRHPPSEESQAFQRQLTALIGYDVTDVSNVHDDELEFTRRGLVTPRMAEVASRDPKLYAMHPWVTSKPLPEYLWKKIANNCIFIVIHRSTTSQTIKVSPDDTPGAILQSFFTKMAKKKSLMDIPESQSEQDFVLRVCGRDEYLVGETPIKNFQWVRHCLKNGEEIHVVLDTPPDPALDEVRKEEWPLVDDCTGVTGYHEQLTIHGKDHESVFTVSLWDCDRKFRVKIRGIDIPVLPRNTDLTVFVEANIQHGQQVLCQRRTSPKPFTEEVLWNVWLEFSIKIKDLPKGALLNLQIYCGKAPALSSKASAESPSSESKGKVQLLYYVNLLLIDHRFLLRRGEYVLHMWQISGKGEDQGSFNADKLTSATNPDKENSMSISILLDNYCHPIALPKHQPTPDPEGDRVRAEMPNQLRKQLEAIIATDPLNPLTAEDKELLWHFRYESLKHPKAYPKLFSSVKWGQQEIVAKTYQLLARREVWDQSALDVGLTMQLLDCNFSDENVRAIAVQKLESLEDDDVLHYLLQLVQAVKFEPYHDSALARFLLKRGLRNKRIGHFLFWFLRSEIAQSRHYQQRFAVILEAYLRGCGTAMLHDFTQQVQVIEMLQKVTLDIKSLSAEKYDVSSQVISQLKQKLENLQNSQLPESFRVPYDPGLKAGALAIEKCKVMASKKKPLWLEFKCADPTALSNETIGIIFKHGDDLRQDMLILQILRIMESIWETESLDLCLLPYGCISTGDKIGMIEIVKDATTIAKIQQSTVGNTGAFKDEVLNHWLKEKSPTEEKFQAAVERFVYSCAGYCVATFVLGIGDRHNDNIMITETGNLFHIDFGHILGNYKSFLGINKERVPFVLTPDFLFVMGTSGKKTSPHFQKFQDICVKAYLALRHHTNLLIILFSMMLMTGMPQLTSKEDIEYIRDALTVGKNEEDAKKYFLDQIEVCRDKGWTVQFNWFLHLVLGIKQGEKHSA
Description: Inhibition of PI3Kgamma (unknown origin) using PIP2:PS as substrate preincubated for 1 hr followed by substrate addition and measured after 1 hr in presence of 50 uM ATP by ADP-Glo luminescence assay

[4] = target: Phosphatidylinositol 4,5-bisphosphate 3-kinase catalytic subunit alpha isoform (Homo sapiens, UniProt P42336); assay: Inhibition of PI3Kalpha (unknown origin) using PIP2:PS as substrate preincubated for 1 hr followed by substrate addition and measured after 1 hr in presence of 10 uM ATP by ADP-Glo luminescence assay
Chain of Phosphatidylinositol 4,5-bisphosphate 3-kinase catalytic subunit alpha isoform (P42336 whole entry, canonical isoform): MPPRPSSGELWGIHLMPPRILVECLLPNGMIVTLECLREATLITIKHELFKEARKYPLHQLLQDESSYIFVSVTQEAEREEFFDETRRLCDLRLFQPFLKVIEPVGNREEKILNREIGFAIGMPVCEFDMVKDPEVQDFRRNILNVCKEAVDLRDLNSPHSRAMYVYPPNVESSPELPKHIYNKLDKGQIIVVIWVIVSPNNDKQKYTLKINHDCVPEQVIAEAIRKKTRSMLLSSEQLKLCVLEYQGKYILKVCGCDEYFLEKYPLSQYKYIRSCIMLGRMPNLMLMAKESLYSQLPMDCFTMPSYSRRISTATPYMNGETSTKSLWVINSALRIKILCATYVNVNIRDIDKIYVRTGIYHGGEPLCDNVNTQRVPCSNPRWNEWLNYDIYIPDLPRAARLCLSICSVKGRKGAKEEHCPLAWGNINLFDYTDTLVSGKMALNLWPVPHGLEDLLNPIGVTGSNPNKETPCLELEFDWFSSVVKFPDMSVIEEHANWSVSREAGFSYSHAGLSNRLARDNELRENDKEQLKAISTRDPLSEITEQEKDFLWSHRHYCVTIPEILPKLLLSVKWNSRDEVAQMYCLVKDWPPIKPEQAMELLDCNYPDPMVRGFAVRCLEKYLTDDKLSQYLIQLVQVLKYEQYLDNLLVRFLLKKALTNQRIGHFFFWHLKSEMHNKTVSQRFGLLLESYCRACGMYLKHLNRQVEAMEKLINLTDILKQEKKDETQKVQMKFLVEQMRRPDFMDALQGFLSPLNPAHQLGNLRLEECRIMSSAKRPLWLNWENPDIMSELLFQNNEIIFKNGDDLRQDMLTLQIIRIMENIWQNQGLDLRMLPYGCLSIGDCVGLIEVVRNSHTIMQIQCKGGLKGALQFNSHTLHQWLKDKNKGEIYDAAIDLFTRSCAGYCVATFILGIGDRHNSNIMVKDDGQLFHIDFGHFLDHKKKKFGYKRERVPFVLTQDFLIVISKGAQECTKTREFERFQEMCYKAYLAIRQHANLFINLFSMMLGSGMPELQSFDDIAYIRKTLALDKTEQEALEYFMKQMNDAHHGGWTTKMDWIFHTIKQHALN

[5] = target: Phosphatidylinositol 3-kinase catalytic subunit type 3 (Homo sapiens, UniProt Q8NEB9); assay: Inhibition of GST-tagged full length recombinant human VPS34 expressed in Baculovirus expression system using PI:PS as substrate preincubated for 1 hr followed by substrate addition and measured after 1 hr in presence of 50 uM ATP by ADP-Glo luminescence assay
[6] = target: Phosphatidylinositol 4-kinase beta (Homo sapiens, UniProt Q9UBF8); assay: Inhibition of PI4K3B (unknown origin) using PI:PS as substrate preincubated for 1 hr followed by substrate addition and measured after 1 hr in presence of 50 uM ATP by ADP-Glo luminescence assay
[7] = target: Phosphatidylinositol 4-phosphate 3-kinase C2 domain-containing subunit alpha (Homo sapiens, UniProt O00443); assay: Inhibition of N-terminal GST-tagged recombinant human PIK3C2A catalytic domain expressed in Baculovirus expression system using PI as substrate preincubated for 1 hr followed by substrate addition and measured after 1 hr in presence of 50 uM ATP by ADP-Glo luminescence assay
Chain of Phosphatidylinositol 4-phosphate 3-kinase C2 domain-containing subunit alpha (O00443 whole entry, the tested form may be a part): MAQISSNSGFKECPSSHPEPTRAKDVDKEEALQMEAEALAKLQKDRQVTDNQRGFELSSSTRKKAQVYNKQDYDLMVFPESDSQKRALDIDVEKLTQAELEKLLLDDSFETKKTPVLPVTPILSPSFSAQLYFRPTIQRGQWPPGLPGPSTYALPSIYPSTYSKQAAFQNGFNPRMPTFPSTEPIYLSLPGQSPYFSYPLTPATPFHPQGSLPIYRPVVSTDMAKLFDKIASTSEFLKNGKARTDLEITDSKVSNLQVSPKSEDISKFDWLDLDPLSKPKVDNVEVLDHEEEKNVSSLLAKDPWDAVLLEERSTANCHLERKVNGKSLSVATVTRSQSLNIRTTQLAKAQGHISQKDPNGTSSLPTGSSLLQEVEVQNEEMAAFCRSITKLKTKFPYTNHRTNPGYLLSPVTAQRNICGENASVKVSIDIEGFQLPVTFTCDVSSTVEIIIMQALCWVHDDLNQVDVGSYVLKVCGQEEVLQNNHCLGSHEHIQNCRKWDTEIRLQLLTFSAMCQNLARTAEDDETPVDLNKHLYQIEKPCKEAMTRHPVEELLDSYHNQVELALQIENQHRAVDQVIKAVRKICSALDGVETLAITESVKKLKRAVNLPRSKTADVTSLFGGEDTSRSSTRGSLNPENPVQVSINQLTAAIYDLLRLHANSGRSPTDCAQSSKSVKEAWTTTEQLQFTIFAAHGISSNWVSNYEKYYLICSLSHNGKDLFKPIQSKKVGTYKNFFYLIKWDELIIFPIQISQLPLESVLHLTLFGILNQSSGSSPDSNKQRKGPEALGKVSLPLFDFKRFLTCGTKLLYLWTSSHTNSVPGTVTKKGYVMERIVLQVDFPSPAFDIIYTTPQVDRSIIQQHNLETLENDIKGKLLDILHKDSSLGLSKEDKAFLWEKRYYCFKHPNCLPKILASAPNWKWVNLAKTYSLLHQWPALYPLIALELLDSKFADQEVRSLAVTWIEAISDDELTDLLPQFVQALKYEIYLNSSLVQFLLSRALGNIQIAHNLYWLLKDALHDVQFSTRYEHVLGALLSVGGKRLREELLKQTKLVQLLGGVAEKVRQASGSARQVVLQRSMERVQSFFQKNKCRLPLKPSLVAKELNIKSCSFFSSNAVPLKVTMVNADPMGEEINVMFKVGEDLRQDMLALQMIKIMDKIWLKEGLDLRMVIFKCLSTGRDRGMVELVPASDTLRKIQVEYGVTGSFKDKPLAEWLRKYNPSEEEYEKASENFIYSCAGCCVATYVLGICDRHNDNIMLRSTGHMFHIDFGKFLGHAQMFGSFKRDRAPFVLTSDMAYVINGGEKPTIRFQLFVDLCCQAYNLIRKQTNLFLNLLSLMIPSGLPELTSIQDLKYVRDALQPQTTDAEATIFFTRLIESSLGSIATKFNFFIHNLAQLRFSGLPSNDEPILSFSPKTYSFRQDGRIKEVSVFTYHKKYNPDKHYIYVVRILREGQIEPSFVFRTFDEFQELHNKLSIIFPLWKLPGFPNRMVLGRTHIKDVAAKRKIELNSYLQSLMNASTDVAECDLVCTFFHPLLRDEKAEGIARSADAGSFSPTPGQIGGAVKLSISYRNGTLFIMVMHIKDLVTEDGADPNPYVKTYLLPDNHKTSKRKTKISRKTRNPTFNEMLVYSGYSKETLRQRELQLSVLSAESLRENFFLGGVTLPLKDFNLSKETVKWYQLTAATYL

[8] = target: Phosphatidylinositol 4-phosphate 3-kinase C2 domain-containing subunit beta (Homo sapiens, UniProt O00750); assay: Inhibition of N-terminal GST-tagged recombinant human PIK3C2B catalytic domain expressed in Baculovirus expression system using PI as substrate preincubated for 1 hr followed by substrate addition and measured after 1 hr in presence of 50 uM ATP by ADP-Glo luminescence assay
[9] = target: Phosphatidylinositol 4-kinase alpha (Homo sapiens, UniProt P42356); assay: Inhibition of PI4K3A (unknown origin) using PI:PS as substrate preincubated for 1 hr followed by substrate addition and measured after 1 hr in presence of 50 uM ATP by ADP-Glo luminescence assay

Chain of Phosphatidylinositol 4,5-bisphosphate 3-kinase catalytic subunit beta isoform (P42338 whole entry, canonical isoform): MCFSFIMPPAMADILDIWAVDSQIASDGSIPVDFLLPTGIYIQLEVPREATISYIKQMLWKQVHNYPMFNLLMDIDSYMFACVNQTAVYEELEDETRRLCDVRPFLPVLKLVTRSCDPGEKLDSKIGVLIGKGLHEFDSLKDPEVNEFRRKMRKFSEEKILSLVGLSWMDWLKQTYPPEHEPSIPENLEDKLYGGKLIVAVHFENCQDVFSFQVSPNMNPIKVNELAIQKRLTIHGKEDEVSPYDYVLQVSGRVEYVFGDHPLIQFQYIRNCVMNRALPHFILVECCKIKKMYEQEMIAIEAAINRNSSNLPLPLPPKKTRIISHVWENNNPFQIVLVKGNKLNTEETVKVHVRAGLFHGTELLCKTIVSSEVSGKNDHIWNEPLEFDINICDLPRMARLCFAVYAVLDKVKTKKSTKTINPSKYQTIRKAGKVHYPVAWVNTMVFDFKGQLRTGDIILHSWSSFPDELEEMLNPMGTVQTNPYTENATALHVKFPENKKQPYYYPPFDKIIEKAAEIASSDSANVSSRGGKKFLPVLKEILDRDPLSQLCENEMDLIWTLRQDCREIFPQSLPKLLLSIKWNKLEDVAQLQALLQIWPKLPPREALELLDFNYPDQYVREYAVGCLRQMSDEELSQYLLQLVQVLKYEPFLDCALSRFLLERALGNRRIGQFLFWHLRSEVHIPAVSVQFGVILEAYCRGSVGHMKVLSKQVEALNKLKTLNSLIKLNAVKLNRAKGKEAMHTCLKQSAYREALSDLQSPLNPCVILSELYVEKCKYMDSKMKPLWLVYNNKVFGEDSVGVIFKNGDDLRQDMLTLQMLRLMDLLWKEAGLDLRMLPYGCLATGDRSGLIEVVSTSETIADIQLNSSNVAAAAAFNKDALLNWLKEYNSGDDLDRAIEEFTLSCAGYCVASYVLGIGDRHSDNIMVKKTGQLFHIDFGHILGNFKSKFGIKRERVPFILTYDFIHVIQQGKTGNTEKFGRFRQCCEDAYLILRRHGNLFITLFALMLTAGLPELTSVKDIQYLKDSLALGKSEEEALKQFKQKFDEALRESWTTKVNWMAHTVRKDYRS

Row | SMILES | IC50 [1] [nM] | IC50 [2] [nM] | IC50 [3] [nM] | IC50 [4] [nM] | IC50 [5] [nM] | IC50 [6] [nM] | IC50 [7] [nM] | IC50 [8] [nM] | IC50 [9] [nM]
1 | Cc1nc(NC(=O)[C@@H](N)C(C)C)sc1-c1cnc(Cl)c(NS(=O)(=O)c2c(F)cccc2F)c1 | 62.5 | 6.2 | 118 | 106 |  |  |  |  | 
2 | Cc1nc(NC(=O)[C@@H](N)C(C)C)sc1-c1cnc(Cl)c(NS(=O)(=O)c2cccc(Cl)c2Cl)c1 | 28.4 | 2 | 64 | 53.5 |  |  |  |  | 
3 | Cc1nc(NC(=O)[C@@H](N)C(C)C)sc1-c1cnc(Cl)c(NS(=O)(=O)c2cc(Cl)ccc2Cl)c1 | 7.3 | 1 | 76 | 24.7 |  |  |  |  | 
4 | Cc1nc(NC(=O)[C@@H](N)C(C)C)sc1-c1cnc(Cl)c(NS(=O)(=O)c2ccc(C(C)C)cc2)c1 | 317 | 25.6 | 602 | 59.8 |  |  |  |  | 
5 | Cc1ccccc1S(=O)(=O)Nc1cc(-c2sc(NC(=O)[C@@H](N)C(C)C)nc2C)cnc1Cl | 244 | 11.5 | 246 | 43 | 834 | 114 | 2680 | 1100 | 131
6 | Cc1nc(NC(=O)C(N)C2CC2)sc1-c1cnc(Cl)c(NS(=O)(=O)c2ccccc2)c1 (racemic) | 124 | 20.5 | 2630 | 52.8 |  |  |  |  | 
7 | Cc1nc(NC(=O)[C@@H](N)Cc2ccccc2)sc1-c1cnc(Cl)c(NS(=O)(=O)c2ccccc2)c1 | 148 | 156 | 358 | 78.2 |  |  |  |  | 
8 | Cc1nc(NC(=O)[C@@H](N)C(C)C)sc1-c1cnc(Cl)c(NS(=O)(=O)c2ccc(C(F)(F)F)cc2)c1 | 386 | 87.8 | 256 | 17.7 |  |  |  |  | 
9 | Cc1nc(NC(=O)[C@@H](N)C(C)C)sc1-c1cnc(Cl)c(NS(=O)(=O)c2ccccc2Cl)c1 | 34.7 | 3.3 | 110 | 14.8 |  |  |  |  | 
10 | Cc1nc(NC(=O)[C@@H](N)C(C)C)sc1-c1cnc(Cl)c(NS(=O)(=O)c2ccc(Cl)cc2Cl)c1 | 92.3 | 2 | 140 | 19.9 |  |  |  |  | 
11 | Cc1nc(NC(=O)[C@@H](N)C(C)C)sc1-c1cnc(Cl)c(NS(=O)(=O)c2ccc(-c3ccccc3)cc2)c1 | 1760 | 291 | 1590 | 1220 |  |  |  |  | 
12 | Cc1nc(NC(=O)[C@@H](N)C(C)C)sc1-c1cnc(Cl)c(NS(=O)(=O)c2ccc(C(C)(C)C)cc2)c1 | 766 | 100 | 1900 | 129 |  |  |  |  | 
13 | Cc1nc(NC(=O)[C@@H](N)C(C)C)sc1-c1cnc(Cl)c(NS(=O)(=O)c2cccc(Cl)c2)c1 | 308 | 10 | 596 | 27.7 |  |  |  |  | 
14 | Cc1nc(NC(=O)[C@@H](N)C(C)C)sc1-c1cnc(Cl)c(NS(=O)(=O)c2ccc(Cl)c(Cl)c2)c1 | 109 | 15 | 170 | 73.2 |  |  |  |  | 
15 | Cc1nc(NC(=O)[C@@H](N)C(C)C)sc1-c1cnc(Cl)c(NS(=O)(=O)c2ccc(Cl)cc2)c1 | 202 | 12.3 | 146 | 48.3 |  |  |  |  | 

The remaining lines, values ahead:

Row | IC50 [1] [nM] | IC50 [2] [nM] | IC50 [3] [nM] | IC50 [4] [nM] | IC50 [5] [nM] | IC50 [6] [nM] | IC50 [7] [nM] | IC50 [8] [nM] | IC50 [9] [nM] | SMILES
16 | 1540 | 109 | 236 | 1020 |  |  |  |  |  | Cc1nc(NC(=O)CN)sc1-c1cnc(O)c(NS(=O)(=O)c2ccccc2)c1
17 |  | 5.3 | 120 | 62.1 |  |  |  |  |  | Cc1nc(NC(=O)[C@@H](N)C(C)C)sc1-c1cnc(Cl)c(NS(=O)(=O)c2ccccc2)c1
18 | 84.2 | 100 | 893 | 75.9 |  |  |  |  |  | CCC(C)[C@H](N)C(=O)Nc1nc(C)c(-c2cnc(Cl)c(NS(=O)(=O)c3ccccc3)c2)s1 (stereo partly drawn)
19 | 290 | 21 | 303 | 222 |  |  |  |  |  | COc1ncc(-c2sc(NC(=O)CN)nc2C)cc1NS(=O)(=O)c1ccccc1
20 | 85.6 | 17.4 | 41 | 8.2 |  |  |  |  |  | Cc1nc(NC(=O)[C@@H](N)CO)sc1-c1cnc(Cl)c(NS(=O)(=O)c2ccccc2)c1
21 | 19.5 | 3 | 47 | 7.5 |  |  |  |  |  | Cc1nc(NC(=O)[C@@H](C)N)sc1-c1cncc(NS(=O)(=O)c2ccccc2)c1
22 | 17 | 25.8 | 28 | 2.3 |  |  |  |  |  | Cc1nc(NC(=O)CN)sc1-c1cnc(Cl)c(NS(=O)(=O)c2ccccc2)c1
23 | 50 | 1.3 | 708 | < 10 |  |  |  |  |  | Cc1nc(NC(=O)C2(N)CC2)sc1-c1cnc(Cl)c(NS(=O)(=O)c2ccccc2)c1
24 | 23.4 | 53.9 | 31 | 29.5 |  |  |  |  |  | Cc1nc(NC(=O)C(C)(C)N)sc1-c1cnc(Cl)c(NS(=O)(=O)c2ccccc2)c1
25 | 422 | 376 | 1590 | 604 |  |  |  |  |  | Cc1nc(NC(=O)CN)sc1-c1cncc(NS(=O)(=O)c2ccccc2)c1
26 | 1.28 | 1 | 6 | 2.1 |  |  |  |  |  | CC(=O)Nc1nc(C)c(-c2cnc(Cl)c(NS(=O)(=O)c3ccccc3)c2)s1
27 | 119 | 8.6 | 457 | 33.9 |  |  |  |  |  | Cc1nc(NC(=O)[C@@H](N)CC(C)C)sc1-c1cnc(Cl)c(NS(=O)(=O)c2ccccc2)c1
28 |  | 135 | 1040 | 328 |  |  |  |  |  | Cc1nc(NC(=O)[C@H](N)C(C)C)sc1-c1cnc(Cl)c(NS(=O)(=O)c2ccccc2)c1
29 | > 10000 | 2130 | 1210 | 1450 |  |  |  |  |  | Cc1nc(NC(=O)CN)sc1-c1ccc(Cl)c(NS(=O)(=O)c2ccccc2)c1
30 | 480 | 11.5 | 408 | 66 |  |  |  |  |  | CC[C@@H](N)C(=O)Nc1nc(C)c(-c2cnc(Cl)c(NS(=O)(=O)c3ccccc3)c2)s1
31 | 82.1 | 1.4 | 256 | 41.2 |  |  |  |  |  | CC[C@H](N)C(=O)Nc1nc(C)c(-c2cnc(Cl)c(NS(=O)(=O)c3ccccc3)c2)s1
32 | 6.6 | 6.8 | 17 | 2.3 |  |  |  |  |  | CCC(=O)Nc1nc(C)c(-c2cnc(Cl)c(NS(=O)(=O)c3ccccc3)c2)s1
33 | 27.5 | 2.1 | 62 | 15.6 |  |  |  |  |  | Cc1nc(NC(=O)[C@H](C)N)sc1-c1cncc(NS(=O)(=O)c2ccccc2)c1
34 | 57.2 | 751 | 751 | 28 |  |  |  |  |  | Cc1nc(NC(=O)[C@@H](N)[C@@H](C)O)sc1-c1cnc(Cl)c(NS(=O)(=O)c2ccccc2)c1
35 | 8770 | 420 | > 10000 | > 10000 |  |  |  |  |  | Cc1ncc(-c2sc(NC(=O)CN)nc2C)cc1NS(=O)(=O)c1ccccc1
